From US9701709B2 (REATA PHARMACEUTICALS, INC., priority 2012, dated 2017)
Values joined by “and” are separate entries in the source; they are usually repeats but may differ in a detail not shown here. Identical values can stand only once. Like-named read-outs stand apart in the source and are kept apart here.

How the values were obtained:
[1] = test system: NQO1 enzymatic activity in RAW264.7 mouse macrophage cells; experiment: NQO1 enzymatic activity (modified Prochaska assay) in RAW264.7; type: cell-based; details: RAW264.7, 24 h
Method: Consistent with induction of Nrf2 target genes and corresponding protein products, treatment of RAW264.7 mouse macrophage cells for 24 h increased NQO1 enzymatic activity in a dose-dependent manner, with increases evident at 7.8 nM (FIG. 7). NQO1 enzymatic activity was measured by a modified Prochaska assay (Prochaska and Santamaria, Anal Biochem. 169:328-336, 1988, which is incorporated herein by reference).

[2] = test system: H6PD, PGD, TKT, ME1 mRNA in HCT-116 cells; experiment: mRNA of NADPH synthesis genes in HCT-116; type: cell-based; details: HCT-116, 10 or 50 nM, 24 h
Method: HCT-116 cells were plated in 6-well dishes at a density of 3×10^5 cells/well. […] Each well received the same amount of vehicle. Following treatment, media was removed and cells were harvested using RLT buffer (Qiagen). Lysates were homogenized using QIAShredder columns (Qiagen, Catalog #79654) and RNA was isolated using RNeasy Mini kits (Qiagen, Catalog #74104). For reverse transcription, RNA (1 μg) was combined with Oligo(dT)12-18 primer and H2O in a final volume of 23.25 μL. The mixture was heated to 70° C. for 10 min and then placed on ice. A master mix containing 8 μL 5×1st strand buffer, 2 μL 1 mg/ml BSA, 2 μL 20 mM DTT, 4 μL 5 mM dNTP mix, 0.25 μL RNaseOUTTM and 0.5 μL […]® II reverse transcriptase was added to the RNA mixture and incubated at 42° C. for 1 h. The reaction was inactivated by heating to 70° C. for 10 min. The reaction mixture was diluted 1:3 with H2O prior to use in qPCR. 2.5 μL of the diluted reverse transcription reaction was combined with one set of PCR primers (0.36 μM final concentration), 2× iQTM SYBR® Green Supermix (Bio-Rad, Catalog #170-8885) and H2O to a final volume of 20 pt. Sequences for PCR primers are as follows: Ribosomal protein S9 (RPS9) forward primer [NT] ID NO: 7), reverse primer [NT] ID NO: 8); […] […] The relative abundance of each target gene was determined using the comparative CT method (ΔΔCT). […]

[3] = test system: TNF-α-induced NF-κB activation in A549/NF-κB-Luc cells; experiment: TNF-α-induced NF-κB luciferase reporter in A549/NF-κB-Luc; type: cell-based; details: Homo sapiens
Description: (b) TNF-α-induced activation of an NF-κB luciferase reporter in the human A549 cell line.
NF-κB is a transcription factor that plays a central role in the regulation of many immune and inflammatory responses. […] The NIH3T3/NF-κB-luc cell line maintains a chromosomal integration of a Firefly luciferase reporter construct regulated by eight copies of the NF-κB response element. The effects of these compounds can be quantified by measuring the value of the NF-κB IC50.

LPS-induced sepsis = details: mouse, in vivo
cardiovascular function = experiment: Cardiovascular evaluation in conscious cynomolgus monkeys (telemetry); type: in vivo, cynomolgus monkey
Method: Animals were instrumented with telemetry transmitters for measurement of body temperature, blood pressure, heart rate, and electrocardiogram (ECG) evaluation. Body temperature, systolic, diastolic, and mean arterial blood pressure, heart rate, and ECG parameters (QRS duration and RR, PR, and QT intervals) were monitored continuously from at least 2 h pre-dose until at least 24 h post-dose. ECG tracings were printed at designated time points from the cardiovascular monitoring data and were qualitatively evaluated by a board-certified veterinary cardiologist.
Observations for morbidity, mortality, injury, and availability of food and water were conducted at least twice daily for all animals. Clinical observations were conducted pre-dose, approximately 4 h post-dose, and following completion of the cardiovascular monitoring period. Body weights were measured and recorded on the day prior to each treatment administration.

[4] = test system: acute radiation dermatitis; experiment: Acute radiation dermatitis in BALB/c mice; type: in vivo, mouse

CC1(C)CC[C@]2(NC(=O)C(C)(F)F)CC[C@]3(C)[C@H](C(=O)C=C4[C@@]5(C)C=C(C#N)C(=O)C(C)(C)[C@@H]5CC[C@]43C)[C@@H]2C1 [RTA 408, N-((4aS,6aR,6bS,8aR,12aS,14aR,14bS)-11-cyano-2,2,6a,6b,9,9,12a-heptamethyl-10,14-dioxo-1,2,3,4,4a,5,6,6a,6b,7,8,8a,9,10,12a,14,14a,14b-octadecahydropicen-4a-yl)-2,2-difluoropropanamide]
Concentration at which increases in NQO1 enzymatic activity were evident [1]: 7.8 nM | Expression of genes involved in NADPH synthesis [2]: dose-dependent increase in expression of genes involved in NADPH synthesis | IC50 ([3]; not viability normalized, read-out: NF-κB IC50, human A549 cell line (further experimentation)): 1700 nM | IC50 ([3]; read-out: NF-κB IC50, human A549 cell line, viability normalized): 1700 nM | Animals surviving until Day 4 (LPS-induced sepsis): 80% and 90% | Survival, systemic LPS (LPS-induced sepsis): improved survival | Increase in the corrected QT interval (on average) (cardiovascular function; 100 mg/kg oral, not considered treatment related): 1.6% | Cardiovascular function (cardiovascular function; oral, doses up to and including 100 mg/kg): produced no effects on cardiovascular function | % animal-days >=2 ([4]; oral 3 mg/kg): 32.5% | % animal-days >=3 ([4]; oral 3 mg/kg): 1.3% | % mice scored above 3 in clinical dermatitis exam, Day 16 ([4]; oral 3 mg/kg): 10% | % mice scored above 3 in clinical dermatitis exam, Day 18 ([4]; oral 3 mg/kg): 10% | % mice scored above 3 in clinical dermatitis exam, Day 20 ([4]; oral 3 mg/kg): 0% | % mice scored above 3 in clinical dermatitis exam, Day 22 ([4]; oral 3 mg/kg): 0% | % mice scored above 3 in clinical dermatitis exam, Day 24 ([4]; oral 3 mg/kg): 0% | % mice scored above 3 in clinical dermatitis exam, Day 26 ([4]; oral 3 mg/kg): 0% | % mice scored above 3 in clinical dermatitis exam, Day 28 ([4]; oral 3 mg/kg): 0% | % animal-days >=2 ([4]; oral 10 mg/kg): 33.8% | % animal-days >=3 ([4]; oral 10 mg/kg): 4.1% | % mice scored above 3 in clinical dermatitis exam, Day 16 ([4]; oral 10 mg/kg): 10% | % mice scored above 3 in clinical dermatitis exam, Day 18 ([4]; oral 10 mg/kg): 25% | % mice scored above 3 in clinical dermatitis exam, Day 20 ([4]; oral 10 mg/kg): 30% | % mice scored above 3 in clinical dermatitis exam, Day 22 ([4]; oral 10 mg/kg): 0% | % mice scored above 3 in clinical dermatitis exam, Day 24 ([4]; oral 10 mg/kg): 0% | % mice scored above 3 in clinical dermatitis exam, Day 26 ([4]; oral 10 mg/kg): 0% | % mice scored above 3 in clinical dermatitis exam, Day 28 ([4]; oral 10 mg/kg): 0% | % animal-days >=2 ([4]; oral 30 mg/kg): 28.8% | % animal-days >=3 ([4]; oral 30 mg/kg): 2.5% | % mice scored above 3 in clinical dermatitis exam, Day 16 ([4]; oral 30 mg/kg): 10% | % mice scored above 3 in clinical dermatitis exam, Day 18 ([4]; oral 30 mg/kg): 20% | % mice scored above 3 in clinical dermatitis exam, Day 20 ([4]; oral 30 mg/kg): 10% | % mice scored above 3 in clinical dermatitis exam, Day 22 ([4]; oral 30 mg/kg): 0% | % mice scored above 3 in clinical dermatitis exam, Day 24 ([4]; oral 30 mg/kg): 0% | % mice scored above 3 in clinical dermatitis exam, Day 26 ([4]; oral 30 mg/kg): 0% | % mice scored above 3 in clinical dermatitis exam, Day 28 ([4]; oral 30 mg/kg): 0% | % animal-days >=2 ([4]; topical 0.01% in sesame oil): 14.4% | % animal-days >=3 ([4]; topical 0.01% in sesame oil): 0.0% | % mice scored above 2 in clinical dermatitis exam, Day 12 ([4]; topical 0.01% in sesame oil): 0.0% | % mice scored above 2 in clinical dermatitis exam, Day 14 ([4]; topical 0.01% in sesame oil): 0.0% | % mice scored above 2 in clinical dermatitis exam, Day 16 ([4]; topical 0.01% in sesame oil): 20.0% | % mice scored above 2 in clinical dermatitis exam, Day 18 ([4]; topical 0.01% in sesame oil): 50.0% | % mice scored above 2 in clinical dermatitis exam, Day 20 ([4]; topical 0.01% in sesame oil): 10.0% | % mice scored above 2 in clinical dermatitis exam, Day 22 ([4]; topical 0.01% in sesame oil): 40.0% | % mice scored above 2 in clinical dermatitis exam, Day 24 ([4]; topical 0.01% in sesame oil): 40.0% | % mice scored above 2 in clinical dermatitis exam, Day 26 ([4]; topical 0.01% in sesame oil): 40.0% | % mice scored above 2 in clinical dermatitis exam, Day 28 ([4]; topical 0.01% in sesame oil): 20.0% | % mice scored above 2 in clinical dermatitis exam, Day 30 ([4]; topical 0.01% in sesame oil): 10.0% | % animal-days >=2 ([4]; topical 0.1% in sesame oil): 16.3% | % animal-days >=3 ([4]; topical 0.1% in sesame oil): 0.0% | % mice scored above 2 in clinical dermatitis exam, Day 12 ([4]; topical 0.1% in sesame oil): 7.1% | % mice scored above 2 in clinical dermatitis exam, Day 14 ([4]; topical 0.1% in sesame oil): 10.0% | % mice scored above 2 in clinical dermatitis exam, Day 16 ([4]; topical 0.1% in sesame oil): 20.0% | % mice scored above 2 in clinical dermatitis exam, Day 18 ([4]; topical 0.1% in sesame oil): 80.0% | % mice scored above 2 in clinical dermatitis exam, Day 20 ([4]; topical 0.1% in sesame oil): 60.0% | % mice scored above 2 in clinical dermatitis exam, Day 22 ([4]; topical 0.1% in sesame oil): 40.0% | % mice scored above 2 in clinical dermatitis exam, Day 24 ([4]; topical 0.1% in sesame oil): 30.0% | % mice scored above 2 in clinical dermatitis exam, Day 26 ([4]; topical 0.1% in sesame oil): 10.0% | % mice scored above 2 in clinical dermatitis exam, Day 28 ([4]; topical 0.1% in sesame oil): 0.0% | % mice scored above 2 in clinical dermatitis exam, Day 30 ([4]; topical 0.1% in sesame oil): 0.0% | % animal-days >=2 ([4]; topical 1.0% in sesame oil): 9.7% | % animal-days >=3 ([4]; topical 1.0% in sesame oil): 0.0% | % mice scored above 2 in clinical dermatitis exam, Day 12 ([4]; topical 1.0% in sesame oil): 10.7% | % mice scored above 2 in clinical dermatitis exam, Day 14 ([4]; topical 1.0% in sesame oil): 20.0% | % mice scored above 2 in clinical dermatitis exam, Day 16 ([4]; topical 1.0% in sesame oil): 10.0% | % mice scored above 2 in clinical dermatitis exam, Day 18 ([4]; topical 1.0% in sesame oil): 70.0% | % mice scored above 2 in clinical dermatitis exam, Day 20 ([4]; topical 1.0% in sesame oil): 30.0% | % mice scored above 2 in clinical dermatitis exam, Day 22 ([4]; topical 1.0% in sesame oil): 10.0% | % mice scored above 2 in clinical dermatitis exam, Day 24 ([4]; topical 1.0% in sesame oil): 0.0% | % mice scored above 2 in clinical dermatitis exam, Day 26 ([4]; topical 1.0% in sesame oil): 0.0% | % mice scored above 2 in clinical dermatitis exam, Day 28 ([4]; topical 1.0% in sesame oil): 0.0% | % mice scored above 2 in clinical dermatitis exam, Day 30 ([4]; topical 1.0% in sesame oil): 0.0%
